Laboratory results from ChEMBL document CHEMBL1139727, “A novel series of imidazo[1,2-a]pyridine derivatives as HIF-1alpha prolyl hydroxylase inhibitors” (Bioorg Med Chem Lett, 2006).

Target: Egl nine homolog 1 (Homo sapiens, UniProt Q9GZT9)
Experiment: Inhibition of human EGLN1

Chain of Egl nine homolog 1 (Q9GZT9 whole entry): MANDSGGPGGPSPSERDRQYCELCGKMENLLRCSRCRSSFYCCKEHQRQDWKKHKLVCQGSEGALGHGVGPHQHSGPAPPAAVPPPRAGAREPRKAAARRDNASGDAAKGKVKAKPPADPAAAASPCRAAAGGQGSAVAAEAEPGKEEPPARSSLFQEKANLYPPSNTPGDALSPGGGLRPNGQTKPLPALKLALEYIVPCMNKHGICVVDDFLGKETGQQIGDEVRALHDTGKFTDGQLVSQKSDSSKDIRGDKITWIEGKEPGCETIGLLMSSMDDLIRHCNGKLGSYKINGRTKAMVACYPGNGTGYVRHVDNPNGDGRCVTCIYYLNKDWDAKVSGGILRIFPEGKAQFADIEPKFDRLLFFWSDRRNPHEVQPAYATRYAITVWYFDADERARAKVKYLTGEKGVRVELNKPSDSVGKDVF

- IC50: > 100 µM
SMILES: Cc1cccc(-c2ccc3nc(C(=O)NCC(=O)O)cn3c2)c1
